PubChem BioAssay AID330 (DTP/NCI, 2004)
Values joined by “and” are separate entries in the source; they are usually repeats but may differ in a detail not shown here. Equal values may be shown once. Inconclusive results and toxic doses are left out.

Test system: P388 leukemia ip, CD2F1 mice, survival T/C
Test: NCI In Vivo Anticancer Drug Screen. Data for tumor model P388 Leukemia (intraperitoneal) in CD2F1 (CDF1) mice
Conditions: endpoint: median survival time, higher = longer survival
Summary of the method: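 Mice carrying the transplanted tumor received test compound or vehicle. Survival was recorded in each group, and the value is the treated-group measurement divided by that of the vehicle-treated control group.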

[1] = dose: 100.0 mg/kg/injection, schedule: Q01DX001 (ip), vehicle: Klucel (hydroxypropylcellulose) (HPC)
[2] = dose: 6.25 mg/kg/injection, schedule: Q01DX009 (ip), vehicle: saline
[3] = dose: 50.0 mg/kg/injection, schedule: Q01DX009 (ip), vehicle: saline
[4] = dose: 100.0 mg/kg/injection, schedule: Q01DX009 (ip), vehicle: saline
[5] = dose: 50.0 mg/kg/injection, schedule: Q01DX005 (ip), vehicle: Klucel (hydroxypropylcellulose) (HPC)
[6] = dose: 100.0 mg/kg/injection, schedule: Q01DX005 (ip), vehicle: Klucel (hydroxypropylcellulose) (HPC)
[7] = dose: 60.0 mg/kg/injection, schedule: Q01DX005 (ip), vehicle: saline with Tween-80
[8] = dose: 120.0 mg/kg/injection, schedule: Q01DX005 (ip), vehicle: saline with Tween-80
[9] = dose: 240.0 mg/kg/injection, schedule: Q01DX005 (ip), vehicle: saline with Tween-80
[10] = dose: 50.0 mg/kg/injection, schedule: Q01DX005 (ip), vehicle: saline with Tween-80
[11] = dose: 100.0 mg/kg/injection, schedule: Q01DX005 (ip), vehicle: saline with Tween-80
[12] = dose: 200.0 mg/kg/injection, schedule: Q01DX005 (ip), vehicle: saline with Tween-80

`CN1NC(c2ccccc2)NN(C)C1=O` was tested, and the T/C (dose: 50.0 mg/kg/injection, schedule: Q01DX005 (ip), vehicle: saline) was 97 % of control, the T/C (dose: 100.0 mg/kg/injection, schedule: Q01DX005 (ip), vehicle: saline) was 99 % of control and the T/C (dose: 200.0 mg/kg/injection, schedule: Q01DX005 (ip), vehicle: saline) was 106 % of control.

For `O=C(NCCSCCSCCSCCNC(=O)Oc1ccccc1)Oc1ccccc1`, the T/C [1] was 92 % of control and the T/C (dose: 200.0 mg/kg/injection, schedule: Q01DX001 (ip), vehicle: Klucel (hydroxypropylcellulose) (HPC)) was 91 % of control.

With `COC(=O)c1cc(=O)n2c(nc3ccccc32)s1` the T/C (dose: 50.0 mg/kg/injection, schedule: Q01DX005 (ip), vehicle: acetone) was 108 % of control, the T/C (dose: 100.0 mg/kg/injection, schedule: Q01DX005 (ip), vehicle: acetone) was 104 % of control and the T/C (dose: 200.0 mg/kg/injection, schedule: Q01DX005 (ip), vehicle: acetone) was 101 % of control.

With `CC(=O)NC(C=O)OCC=O` (stereo not drawn) the T/C (dose: 44.0 mg/kg/injection, schedule: Q01DX005 (ip), vehicle: water) was 120 % of control, the T/C (dose: 66.0 mg/kg/injection, schedule: Q01DX005 (ip), vehicle: water) was 121 % of control and the T/C (dose: 150.0 mg/kg/injection, schedule: Q01DX005 (ip), vehicle: water) was 110 % of control.

In the case of `CCOc1ccccc1N=Nc1c(C)nn(C(N)=S)c1OCC`, the T/C (dose: 60.0 mg/kg/injection, schedule: Q01DX005 (ip), vehicle: Klucel (hydroxypropylcellulose) (HPC)) is reported as 106 % of control, the T/C (dose: 120.0 mg/kg/injection, schedule: Q01DX005 (ip), vehicle: Klucel (hydroxypropylcellulose) (HPC)) is reported as 116 % of control and the T/C (dose: 240.0 mg/kg/injection, schedule: Q01DX005 (ip), vehicle: Klucel (hydroxypropylcellulose) (HPC)) is reported as 115 % of control.

`Cc1ccc2c(c1)C=CC(C#N)N2C(=O)OCc1ccccc1` (stereo not drawn) was tested, and the T/C (dose: 100.0 mg/kg/injection, schedule: Q04DX003 (ip), vehicle: saline with Tween-80) was 90 % of control and the T/C (dose: 200.0 mg/kg/injection, schedule: Q04DX003 (ip), vehicle: saline with Tween-80) was 95 % of control.

In the case of `Cc1cccc(N(CCOS(C)(=O)=O)CCOS(C)(=O)=O)c1`, the T/C (dose: 1.56 mg/kg/injection, schedule: Q01DX009 (ip), vehicle: saline) is reported as 95 % of control, the T/C (dose: 3.12 mg/kg/injection, schedule: Q01DX009 (ip), vehicle: saline) is reported as 98 % of control and the T/C [2] is reported as 100 % of control. The T/C (dose: 12.5 mg/kg/injection, schedule: Q01DX009 (ip), vehicle: saline with Tween-80) was 87 % of control and the T/C (dose: 25.0 mg/kg/injection, schedule: Q01DX009 (ip), vehicle: saline) was 102 % of control.

`O=c1[nH]c2cc(Cl)ccc2n1C1CCN(CCCC(c2ccc(F)cc2)c2ccc(F)cc2)CC1` was tested, and the T/C (dose: 6.25 mg/kg/injection, schedule: Q01DX005 (ip), vehicle: saline with Tween-80) was 106 % of control, the T/C (dose: 12.5 mg/kg/injection, schedule: Q01DX005 (ip), vehicle: saline with Tween-80) was 110 % of control and the T/C (dose: 25.0 mg/kg/injection, schedule: Q01DX005 (ip), vehicle: saline with Tween-80) was 110 % of control.

With `Cc1cc2c(cc1S(=O)(=O)O)C1C(C3C2C2(Cl)C(Cl)=C(Cl)C3(Cl)C2(Cl)Cl)C2(Cl)C(Cl)=C(Cl)C1(Cl)C2(Cl)Cl` (stereo not drawn) the T/C [3] was 101 % of control, the T/C [4] was 92 % of control and the T/C (dose: 200.0 mg/kg/injection, schedule: Q01DX009 (ip), vehicle: saline) was 92 % of control.

For `CN(C)CCN(Cc1ccccc1)c1ccc2ccccc2n1`, the T/C (dose: 6.25 mg/kg/injection, schedule: Q01DX005 (ip), vehicle: Klucel (hydroxypropylcellulose) (HPC)) was 97 % of control, the T/C (dose: 12.5 mg/kg/injection, schedule: Q01DX005 (ip), vehicle: Klucel (hydroxypropylcellulose) (HPC)) was 97 % of control and the T/C (dose: 25.0 mg/kg/injection, schedule: Q01DX005 (ip), vehicle: Klucel (hydroxypropylcellulose) (HPC)) was 99 % of control.

For `O=C(/C=C/C1N=C1c1ccccc1)c1ccccc1` (stereo not drawn), the T/C (dose: 25.0 mg/kg/injection, schedule: Q01DX001 (ip), vehicle: Klucel (hydroxypropylcellulose) (HPC)) was 100 % of control, the T/C (dose: 50.0 mg/kg/injection, schedule: Q01DX001 (ip), vehicle: Klucel (hydroxypropylcellulose) (HPC)) was 107 % of control and the T/C [1] was 106 % of control and 107 % of control.

In the case of `CCc1nc(N)nc(N)c1-c1ccc2c(c1)nnn2CCc1ccccc1`, the T/C [5] is reported as 99 % of control and the T/C [6] is reported as 96 % of control.

For `CCOc1ccc(N=C([Se])CC)cc1`, the T/C (dose: 6.25 mg/kg/injection, schedule: Q01DX009 (ip), vehicle: Klucel (hydroxypropylcellulose) (HPC)) was 109 % of control, the T/C (dose: 12.5 mg/kg/injection, schedule: Q01DX009 (ip), vehicle: Klucel (hydroxypropylcellulose) (HPC)) was 102 % of control and the T/C (dose: 25.0 mg/kg/injection, schedule: Q01DX009 (ip), vehicle: Klucel (hydroxypropylcellulose) (HPC)) was 92 % of control.

In the case of `NC(N)=NNC(O)(C(=O)O)C(=O)O`, the T/C [5] is reported as 100 % of control, the T/C [6] is reported as 96 % of control and the T/C (dose: 200.0 mg/kg/injection, schedule: Q01DX005 (ip), vehicle: Klucel (hydroxypropylcellulose) (HPC)) is reported as 96 % of control.

`COc1ccc(C2C3CCCC(C(c4ccc(OC)cc4)N2C)C32NC(=O)NC2=O)cc1` (stereo not drawn) was tested, and the T/C [7] was 90 % of control, the T/C [8] was 90 % of control and the T/C [9] was 91 % of control.

In the case of `CC1=NNC(=O)C1N=Nc1c(C)n(C)n(-c2ccccc2)c1=O` (stereo not drawn), the T/C [10] is reported as 100 % of control, the T/C [11] is reported as 99 % of control and the T/C [12] is reported as 100 % of control.

In the case of `C[C@H]1C(=O)CCC2[C@]3(C)CC4OC(=O)C5(CC[C@@]6(C)CCC(C)(C)CC6C45C)C3CC[C@@]21C` (stereo partly drawn), the T/C (dose: 8.25 mg/kg/injection, schedule: Q01DX005 (ip), vehicle: Klucel (hydroxypropylcellulose) (HPC)) is reported as 93 % of control.

`OCC(CO)(CO)NCCCNC(CO)(CO)CO` was tested, and the T/C (dose: 60.0 mg/kg/injection, schedule: Q01DX005 (ip), vehicle: saline) was 98 % of control, the T/C (dose: 120.0 mg/kg/injection, schedule: Q01DX005 (ip), vehicle: saline) was 101 % of control and the T/C (dose: 240.0 mg/kg/injection, schedule: Q01DX005 (ip), vehicle: saline) was 97 % of control.

`C=CC[n+]1ccc(-c2cc[n+](CC=C)cc2)cc1` was tested, and the T/C [2] was 115 % of control and the T/C (dose: 12.5 mg/kg/injection, schedule: Q01DX009 (ip), vehicle: saline) was 112 % of control and 117 % of control.

`O=c1c(Cl)c2oc3ccc([N+](=O)[O-])cc3nc-2c(Cl)c1Cl` was tested, and the T/C (dose: 50.0 mg/kg/injection, schedule: Q01DX009 (ip), vehicle: saline with Tween-80) was 109 % of control and the T/C (dose: 100.0 mg/kg/injection, schedule: Q01DX009 (ip), vehicle: saline with Tween-80) was 107 % of control.

In the case of `CN(c1ccccc1)c1c(Cl)c(=O)oc2c1ccc1nc(-c3ccccc3)sc12`, the T/C [10] is reported as 86 % of control, the T/C [11] is reported as 90 % of control and the T/C [12] is reported as 86 % of control.

`NC(=O)CCn1cnc2c(N)ncnc21` was tested, and the T/C (dose: 25.0 mg/kg/injection, schedule: Q04DX003 (ip), vehicle: saline) was 100 % of control, the T/C (dose: 50.0 mg/kg/injection, schedule: Q04DX003 (ip), vehicle: saline) was 100 % of control and the T/C (dose: 100.0 mg/kg/injection, schedule: Q04DX003 (ip), vehicle: saline) was 99 % of control.

In the case of `C1CCCNCCNCCNCC1`, the T/C [7] is reported as 98 % of control, the T/C [8] is reported as 100 % of control and the T/C [9] is reported as 92 % of control.

`CCN(CC)CCOC(=O)c1ccc(N)cc1` was tested, and the T/C [3] was 98 % of control and the T/C [4] was 100 % of control.

For `CCCCNCCCNCCCNC(=O)c1csc(-c2csc(CCNC(=O)C(NC(=O)C(C)C(O)C(C)NC(=O)C(NC(=O)c3nc(C(CC(N)=O)NCC(N)C(N)=O)nc(N)c3C)C(OC3OC(CO)C(O)C(O)C3OC3OC(CO)C(O)C(OC(N)=O)C3O)c3cnc[nH]3)C(C)O)n2)n1` (stereo not drawn), the T/C (dose: 0.62 mg/kg/injection, schedule: Q01DX009 (ip), vehicle: water) was 104 % of control and 105 % of control, the T/C (dose: 1.25 mg/kg/injection, schedule: Q01DX009 (ip), vehicle: water) was 104 % of control and 105 % of control and the T/C (dose: 2.5 mg/kg/injection, schedule: Q01DX009 (ip), vehicle: water) was 104 % of control and 110 % of control and 117 % of control. The T/C (dose: 5.0 mg/kg/injection, schedule: Q01DX009 (ip), vehicle: water) was 108 % of control and 117 % of control and 120 % of control, the T/C (dose: 10.0 mg/kg/injection, schedule: Q01DX009 (ip), vehicle: water) was 104 % of control and the T/C (dose: 20.0 mg/kg/injection, schedule: Q01DX009 (ip), vehicle: water) was 105 % of control. The T/C (dose: 40.0 mg/kg/injection, schedule: Q01DX009 (ip), vehicle: water) was 89 % of control.
